Experimental data as given in PubChem BioAssay (NCI).
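Grown in 96-well plates, cells were treated for 48 hours with each compound at five concentrations. Insufficient inhibition: endpoint recorded as highest concentration tested. Abbreviation: GI50, concentration required for 50% inhibition of growth. At the TGI there is no net growth.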

What was measured:
Test in all cases: NCI anticancer screen, dose series, 48 h
786-0 renal = tested on: 786-0 renal
A549 NSCLC = tested on: A549 NSCLC
ACHN renal = tested on: ACHN renal
CAKI-1 renal = tested on: CAKI-1 renal
CCRF-CEM leukemia = tested on: CCRF-CEM leukemia
COLO 205 colon = tested on: COLO 205 colon
DLD-1 colon = tested on: DLD-1 colon
DMS 114 small cell lung = tested on: DMS 114 small cell lung
DMS 273 small cell lung = tested on: DMS 273 small cell lung
HCT-116 colon = tested on: HCT-116 colon
HCT-15 colon = tested on: HCT-15 colon
HL-60(TB) leukemia = tested on: HL-60(TB) leukemia
HOP-18 NSCLC = tested on: HOP-18 NSCLC
HOP-62 NSCLC = tested on: HOP-62 NSCLC
HT29 colon = tested on: HT29 colon
IGROV1 ovarian = tested on: IGROV1 ovarian
K-562 leukemia = tested on: K-562 leukemia
KM12 colon = tested on: KM12 colon
LOX IMVI melanoma = tested on: LOX IMVI melanoma
LXFL 529 NSCLC = tested on: LXFL 529 NSCLC
M14 melanoma = tested on: M14 melanoma
M19-MEL melanoma = tested on: M19-MEL melanoma
MALME-3M melanoma = tested on: MALME-3M melanoma
MOLT-4 leukemia = tested on: MOLT-4 leukemia
NCI-H226 lung = tested on: NCI-H226 lung
NCI-H23 lung = tested on: NCI-H23 lung
NCI-H460 lung = tested on: NCI-H460 lung
NCI-H522 lung = tested on: NCI-H522 lung
OVCAR-4 ovarian = tested on: OVCAR-4 ovarian
OVCAR-5 ovarian = tested on: OVCAR-5 ovarian
OVCAR-8 ovarian = tested on: OVCAR-8 ovarian
RPMI-8226 leukemia = tested on: RPMI-8226 leukemia
RXF 393 renal = tested on: RXF 393 renal
SF-268 CNS = tested on: SF-268 CNS
SF-295 CNS = tested on: SF-295 CNS
SF-539 CNS = tested on: SF-539 CNS
SK-MEL-2 melanoma = tested on: SK-MEL-2 melanoma
SK-MEL-28 melanoma = tested on: SK-MEL-28 melanoma
SK-MEL-5 melanoma = tested on: SK-MEL-5 melanoma
SK-OV-3 ovarian = tested on: SK-OV-3 ovarian
SN12C renal = tested on: SN12C renal
SNB-75 CNS = tested on: SNB-75 CNS
SR leukemia = tested on: SR leukemia
SW-620 colon = tested on: SW-620 colon
TK-10 renal = tested on: TK-10 renal
U251 CNS = tested on: U251 CNS
UACC-257 melanoma = tested on: UACC-257 melanoma
UACC-62 melanoma = tested on: UACC-62 melanoma
UO-31 renal = tested on: UO-31 renal
A498 renal = tested on: A498 renal
EKVX NSCLC = tested on: EKVX NSCLC
HCC-2998 colon = tested on: HCC-2998 colon
HOP-92 NSCLC = tested on: HOP-92 NSCLC
KM20L2 colon = tested on: KM20L2 colon
OVCAR-3 ovarian = tested on: OVCAR-3 ovarian
SNB-19 CNS = tested on: SNB-19 CNS
SNB-78 CNS = tested on: SNB-78 CNS
XF 498 CNS = tested on: XF 498 CNS

Molecule `[N-]=[N+]=Nc1cc(=O)n(-c2ccccc2)c2ccccc12` has a TGI (786-0 renal) of over 100 µM, a TGI (A549 NSCLC) of over 100 µM and a TGI (ACHN renal) of over 100 µM. It also gave a TGI (CAKI-1 renal) of over 100 µM, a TGI (CCRF-CEM leukemia) of over 100 µM and a TGI (COLO 205 colon) of over 100 µM. The TGI (DLD-1 colon) was over 100 µM, the TGI (DMS 114 small cell lung) was over 100 µM and the TGI (DMS 273 small cell lung) was over 100 µM. For the same molecule, the TGI (HCT-116 colon) was over 100 µM, the TGI (HCT-15 colon) was over 100 µM and the TGI (HL-60(TB) leukemia) was over 100 µM. It also gave a TGI (HOP-18 NSCLC) of over 100 µM, a TGI (HOP-62 NSCLC) of over 100 µM and a TGI (HT29 colon) of over 100 µM. For the same molecule, the TGI (IGROV1 ovarian) was over 100 µM, the TGI (K-562 leukemia) was over 100 µM and the TGI (KM12 colon) was over 100 µM. For the same molecule, the TGI (LOX IMVI melanoma) was over 100 µM, the TGI (LXFL 529 NSCLC) was over 100 µM and the TGI (M14 melanoma) was over 100 µM. For the same molecule, the TGI (M19-MEL melanoma) was over 100 µM, the TGI (MALME-3M melanoma) was over 100 µM and the TGI (MOLT-4 leukemia) was over 100 µM. The TGI (NCI-H226 lung) was over 100 µM, the TGI (NCI-H23 lung) was over 100 µM and the TGI (NCI-H460 lung) was over 100 µM. The TGI (NCI-H522 lung) was over 100 µM, the TGI (OVCAR-4 ovarian) was over 100 µM and the TGI (OVCAR-5 ovarian) was over 100 µM. It also gave a TGI (OVCAR-8 ovarian) of over 100 µM, a TGI (RPMI-8226 leukemia) of over 100 µM and a TGI (RXF 393 renal) of over 100 µM. It also gave a TGI (SF-268 CNS) of over 100 µM, a TGI (SF-295 CNS) of over 100 µM and a TGI (SF-539 CNS) of over 100 µM. The TGI (SK-MEL-2 melanoma) was over 100 µM, the TGI (SK-MEL-28 melanoma) was over 100 µM and the TGI (SK-MEL-5 melanoma) was over 100 µM. It also gave a TGI (SK-OV-3 ovarian) of over 100 µM, a TGI (SN12C renal) of over 100 µM and a TGI (SNB-75 CNS) of over 100 µM. The TGI (SR leukemia) was over 100 µM, the TGI (SW-620 colon) was over 100 µM and the TGI (TK-10 renal) was over 100 µM. The TGI (U251 CNS) was over 100 µM, the TGI (UACC-257 melanoma) was over 100 µM and the TGI (UACC-62 melanoma) was over 100 µM. The TGI (UO-31 renal) was over 100 µM.

For `COc1cc2c(c(OC)c1OC)-c1ccc(SC)c(=O)cc1[C@@H](NCc1ccccc1[N+](=O)[O-])CC2`, the TGI (786-0 renal) was 41.5 µM, the TGI (A498 renal) was 0.0283 µM and the TGI (A549 NSCLC) was over 100 µM. For the same molecule, the TGI (ACHN renal) was over 100 µM, the TGI (CAKI-1 renal) was over 100 µM and the TGI (CCRF-CEM leukemia) was 38.5 µM. For the same molecule, the TGI (COLO 205 colon) was 0.0556 µM, the TGI (DLD-1 colon) was over 100 µM and the TGI (DMS 114 small cell lung) was 0.0243 µM. For the same molecule, the TGI (EKVX NSCLC) was over 100 µM, the TGI (HCC-2998 colon) was 0.0407 µM and the TGI (HCT-116 colon) was 0.0278 µM. It also gave a TGI (HCT-15 colon) of 0.0487 µM, a GI50 (HOP-18 NSCLC) of over 100 µM and a TGI (HOP-18 NSCLC) of over 100 µM. For the same molecule, the TGI (HOP-62 NSCLC) was over 100 µM, the TGI (HOP-92 NSCLC) was over 100 µM and the TGI (HT29 colon) was 0.0146 µM. For the same molecule, the GI50 (K-562 leukemia) was 0.171 µM, the TGI (K-562 leukemia) was over 100 µM and the TGI (KM12 colon) was 0.117 µM. The TGI (KM20L2 colon) was 0.0112 µM, the TGI (LOX IMVI melanoma) was 19 µM and the TGI (LXFL 529 NSCLC) was 15.8 µM. The TGI (M14 melanoma) was 0.21 µM, the TGI (M19-MEL melanoma) was over 100 µM and the TGI (MALME-3M melanoma) was over 100 µM. It also gave a TGI (MOLT-4 leukemia) of over 100 µM, a TGI (NCI-H226 lung) of 0.0558 µM and a TGI (NCI-H23 lung) of 0.0237 µM. It also gave a TGI (NCI-H460 lung) of 0.0826 µM, a TGI (NCI-H522 lung) of 0.0298 µM and a TGI (OVCAR-3 ovarian) of 0.0293 µM. For the same molecule, the TGI (OVCAR-4 ovarian) was over 100 µM, the GI50 (OVCAR-5 ovarian) was over 100 µM and the TGI (OVCAR-5 ovarian) was over 100 µM. For the same molecule, the TGI (OVCAR-8 ovarian) was 0.0499 µM, the TGI (RPMI-8226 leukemia) was 23.1 µM and the TGI (SF-295 CNS) was over 100 µM. It also gave a TGI (SF-539 CNS) of 0.0199 µM, a TGI (SK-MEL-28 melanoma) of over 100 µM and a TGI (SNB-19 CNS) of over 100 µM. It also gave a GI50 (SNB-75 CNS) of 1.53 µM, a TGI (SNB-78 CNS) of 40.6 µM and a TGI (SW-620 colon) of over 100 µM. For the same molecule, the TGI (TK-10 renal) was over 100 µM, the TGI (U251 CNS) was 0.0419 µM and the TGI (UACC-257 melanoma) was 47.2 µM. It also gave a TGI (UACC-62 melanoma) of 18.2 µM and a TGI (UO-31 renal) of over 100 µM.

With `O=C1CC[C@H](NC(=O)Cc2ccccc2)C(=O)N1` the TGI (786-0 renal) was over 1250 µM, the TGI (A549 NSCLC) was over 1250 µM and the TGI (ACHN renal) was over 1250 µM. It also gave a TGI (CAKI-1 renal) of over 1250 µM, a TGI (CCRF-CEM leukemia) of over 1250 µM and a TGI (COLO 205 colon) of over 1250 µM. For the same molecule, the TGI (DLD-1 colon) was over 1250 µM, the TGI (DMS 273 small cell lung) was over 1250 µM and the TGI (EKVX NSCLC) was over 1250 µM. The TGI (HCC-2998 colon) was over 1250 µM, the TGI (HCT-116 colon) was over 1250 µM and the TGI (HCT-15 colon) was over 1250 µM. The TGI (HL-60(TB) leukemia) was over 1250 µM, the TGI (HOP-18 NSCLC) was over 1250 µM and the TGI (HOP-62 NSCLC) was over 1250 µM. For the same molecule, the TGI (HT29 colon) was over 1250 µM, the TGI (IGROV1 ovarian) was over 1250 µM and the TGI (K-562 leukemia) was over 1250 µM. It also gave a TGI (KM12 colon) of over 1250 µM, a TGI (KM20L2 colon) of over 1250 µM and a TGI (LOX IMVI melanoma) of over 1250 µM. It also gave a TGI (LXFL 529 NSCLC) of over 1250 µM, a TGI (M14 melanoma) of over 1250 µM and a TGI (M19-MEL melanoma) of over 1250 µM. For the same molecule, the TGI (MALME-3M melanoma) was over 1250 µM, the TGI (MOLT-4 leukemia) was over 1250 µM and the TGI (NCI-H226 lung) was over 1250 µM. It also gave a TGI (NCI-H23 lung) of over 1250 µM, a TGI (NCI-H460 lung) of over 1250 µM and a TGI (NCI-H522 lung) of over 1250 µM. It also gave a TGI (OVCAR-4 ovarian) of over 1250 µM, a TGI (OVCAR-5 ovarian) of over 1250 µM and a TGI (OVCAR-8 ovarian) of over 1250 µM. It also gave a TGI (RPMI-8226 leukemia) of over 1250 µM, a TGI (RXF 393 renal) of over 1250 µM and a TGI (SF-268 CNS) of over 1250 µM. It also gave a TGI (SF-295 CNS) of over 1250 µM, a TGI (SF-539 CNS) of over 1250 µM and a TGI (SK-MEL-2 melanoma) of over 1250 µM. It also gave a TGI (SK-MEL-28 melanoma) of over 1250 µM, a TGI (SK-OV-3 ovarian) of over 1250 µM and a TGI (SN12C renal) of over 1250 µM. For the same molecule, the TGI (SNB-19 CNS) was over 1250 µM, the TGI (SNB-75 CNS) was over 1250 µM and the TGI (SR leukemia) was over 1250 µM. The TGI (SW-620 colon) was over 1250 µM, the TGI (TK-10 renal) was over 1250 µM and the TGI (U251 CNS) was over 1250 µM. The TGI (UACC-257 melanoma) was over 1250 µM, the TGI (UACC-62 melanoma) was over 1250 µM and the TGI (UO-31 renal) was over 1250 µM. The TGI (XF 498 CNS) was over 1250 µM.
